Measurements as given in patent US20100298141A1, “SUBSTITUTED PYRIDINE N-OXIDE HERBICIDES” (E. I. DU PONT DE NEMOURS AND COMPANY, priority 2007, published 2010).

Experiments:
[1] = test system: crabgrass; experiment: Test A pre-/postemergence greenhouse test; type: in vivo, Digitaria sanguinalis; settings: for Plant response rating, Crabgrass, Large: 0 to 100 scale where 0 is no effect and 100 is complete control; for Crabgrass, Large plant response rating: 0 to 100 scale
Summary of the method: (§1)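 Two application timings were run side by side in the greenhouse. Before emergence, compound went onto the soil surface of loam–sand pots as a directed spray; after emergence, plants at 2–10 cm and the one- to two-leaf stage were treated. Visual injury versus controls was rated at approximately day ten.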

[2] = test system: giant foxtail; experiment: Test A pre-/postemergence greenhouse test; type: in vivo, Setaria faberi; settings: for Plant response rating, Foxtail, Giant: 0 to 100 scale where 0 is no effect and 100 is complete control; for Foxtail, Giant plant response rating: 0 to 100 scale
Summary of the method: as §1

[3] = test system: morningglory; experiment: Test A pre-/postemergence greenhouse test; type: in vivo, Ipomoea spp.; settings: for Plant response rating, Morningglory: 0 to 100 scale where 0 is no effect and 100 is complete control; for Morningglory plant response rating: 0 to 100 scale
Summary of the method: as §1

[4] = test system: wheat; experiment: Test A pre-/postemergence greenhouse test; type: in vivo, Triticum aestivum; settings: for Plant response rating, Wheat: 0 to 100 scale where 0 is no effect and 100 is complete control; for Wheat plant response rating: 0 to 100 scale
Summary of the method: as §1

[5] = test system: downy brome; experiment: Test C pre-/postemergence test; type: in vivo, Bromus tectorum
Summary of the method: (§2)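 Test chemicals were formulated with surfactant in a non-phytotoxic solvent and sprayed both on freshly planted seeds (preemergence) and on 1- to 4-leaf plants of 2–18 cm (postemergence). Flooded-paddy pots received compound directly into 3 cm of standing water, maintained for the test.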

[6] = test system: cocklebur; experiment: Test C pre-/postemergence test; type: in vivo, Xanthium strumarium
Summary of the method: as §2

[7] = test system: corn; experiment: Test C pre-/postemergence test; type: in vivo, Zea mays
Summary of the method: as §2

[8] = test system: woolly cupgrass; experiment: Test C pre-/postemergence test; type: in vivo, Eriochloa villosa
Summary of the method: as §2

[9] = test system: giant foxtail; experiment: Test C pre-/postemergence test; type: in vivo, Setaria faberii
Summary of the method: as §2

[10] = test system: Goosegrass; experiment: Test C pre-/postemergence test; type: in vivo, Eleusin indica
Summary of the method: as §2

[11] = test system: johnsongrass; experiment: Test C pre-/postemergence test; type: in vivo, Sorghum halepense
Summary of the method: as §2

[12] = test system: lambsquarters; experiment: Test C pre-/postemergence test; type: in vivo, Chenopodium album
Summary of the method: as §2

[13] = test system: morningglory; experiment: Test C pre-/postemergence test; type: in vivo, Ipomoea coccinea
Summary of the method: as §2

[14] = test system: yellow nutsedge; experiment: Test C pre-/postemergence test; type: in vivo, Cyperus esculentus
Summary of the method: as §2

[15] = test system: common ragweed; experiment: Test C pre-/postemergence test; type: in vivo, Ambrosia elation
Summary of the method: as §2

[16] = test system: soybean; experiment: Test C pre-/postemergence test; type: in vivo, Glycine max
Summary of the method: as §2

[17] = test system: umbrella sedge; experiment: Test C flooded paddy test; type: in vivo, Cyperus difformis; settings: Flood
Summary of the method: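 Flooded 3 cm over soil; compound into paddy water; depth kept constant. Greenhouse 13–15 d.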

[18] = Postemergence, 500 g ai/ha, 0 is no effect, 100 is complete control
[19] = Preemergence, 125 g ai/ha, 0 no effect, 100 complete control
[20] = 62 g ai/ha, Preemergence, scale 0 to 100
[21] = 125 g ai/ha, preemergence, scale 0 (no effect) to 100 (complete control)
[22] = Preemergence, 31 g ai/ha, scale 0 to 100 (0 no effect, 100 complete control)
[23] = preemergence, 250 g ai/ha, scale 0 (no effect) to 100 (complete control)

SMILES: Cn1nc(C(F)(F)F)c(CS(=O)(=O)c2ccc(Cl)c[n+]2[O-])c1OCC(F)(F)F [Compound 73]
- Plant response rating, Crabgrass, Large ([1]; Postemergence, 125 g ai/ha): 60
- Crabgrass, Large plant response rating [1, 18]: 80
- Crabgrass, Large plant response rating [1, 19]: 70
- Plant response rating, Crabgrass, Large ([1]; Preemergence, 500 g ai/ha): 90
- Plant response rating, Foxtail, Giant ([2]; Postemergence, 125 g ai/ha): 70
- Foxtail, Giant plant response rating [2, 18]: 90
- Foxtail, Giant plant response rating [2, 19]: 90
- Plant response rating, Foxtail, Giant ([2]; Preemergence, 500 g ai/ha): 100
- Plant response rating, Morningglory ([3]; Postemergence, 125 g ai/ha): 0
- Morningglory plant response rating [3, 18]: 20
- Morningglory plant response rating [3, 19]: 20
- Plant response rating, Morningglory ([3]; Preemergence, 500 g ai/ha): 40
- Plant response rating, Wheat ([4]; Postemergence, 125 g ai/ha): 0
- Wheat plant response rating [4, 18]: 30
- Wheat plant response rating [4, 19]: 0
- Plant response rating, Wheat ([4]; Preemergence, 500 g ai/ha): 50
- Bromegrass, Downy plant response rating [5, 20]: 60
- Bromegrass, Downy plant response rating [5, 21]: 60
- Plant response rating, Bromegrass, Downy [5, 22]: 0
- Bromegrass, Downy plant response rating [5, 23]: 100
- Cocklebur plant response rating [6, 20]: 0
- Cocklebur plant response rating [6, 21]: 0
- Plant response rating, Cocklebur [6, 22]: 0
- Cocklebur plant response rating [6, 23]: 0
- Corn plant response rating [7, 20]: 0
- Corn plant response rating [7, 21]: 0
- Plant response rating, Corn [7, 22]: 0
- Corn plant response rating [7, 23]: 30
- Cupgrass, Woolly plant response rating [8, 20]: 80
- Cupgrass, Woolly plant response rating [8, 21]: 85
- Plant response rating, Cupgrass, Woolly [8, 22]: 60
- Cupgrass, Woolly plant response rating [8, 23]: 85
- Foxtail, Giant plant response rating [9, 20]: 10
- Foxtail, Giant plant response rating [9, 21]: 80
- Plant response rating, Foxtail, Giant [9, 22]: 10
- Foxtail, Giant plant response rating [9, 23]: 80
- Goosegrass plant response rating [10, 20]: 100
- Goosegrass plant response rating [10, 21]: 100
- Plant response rating, Goosegrass [10, 22]: 98
- Goosegrass plant response rating [10, 23]: 100
- Johnsongrass plant response rating [11, 20]: 100
- Johnsongrass plant response rating [11, 21]: 100
- Plant response rating, Johnsongrass [11, 22]: 70
- Johnsongrass plant response rating [11, 23]: 100
- Lambsquarters plant response rating [12, 20]: 100
- Lambsquarters plant response rating [12, 21]: 100
- Plant response rating, Lambsquarters [12, 22]: 50
- Lambsquarters plant response rating [12, 23]: 100
- Morningglory plant response rating [13, 20]: 0
- Morningglory plant response rating [13, 21]: 0
- Plant response rating, Morningglory [13, 22]: 0
- Morningglory plant response rating [13, 23]: 0
- Nutsedge, Yellow plant response rating [14, 20]: 0
- Nutsedge, Yellow plant response rating [14, 21]: 40
- Plant response rating, Nutsedge, Yellow [14, 22]: 0
- Nutsedge, Yellow plant response rating [14, 23]: 80
- Ragweed plant response rating [15, 20]: 70
- Ragweed plant response rating [15, 21]: 95
- Plant response rating, Ragweed [15, 22]: 60
- Ragweed plant response rating [15, 23]: 100
- Soybean plant response rating [16, 20]: 0
- Plant response rating, Soybean [16, 22]: 0
- Soybean plant response rating [16, 23]: 70
- Plant response rating, Sedge, Umbrella ([17]; 62 g ai/ha, scale 0 to 100 (0 no effect, 100 complete control)): 0
- Plant response rating, Sedge, Umbrella ([17]; 250 g ai/ha, scale 0 to 100, 0 no effect, 100 complete control, 13 to 15 days): 65
